# Values quoted from earlier work in US10316097B2, “Method for the treatment of epilepsy, epileptogenesis, seizures or convulsions by an anti-colony-stimulating factor 1 receptor (CSF-1R) antibody” (UCB BIOPHARMA SPRL, priority 2015, dated 2019).
# Assays:
# [1] = test system: TNF-α-driven inflammation in the brain; details: systemic administration in rodents
# [2] = systemic administration in rodents
substance,measurement,setting,value
etanercept,Effect on TNF-α-driven inflammation in the brain,[1],does not affect
same,Crossing of the blood-brain barrier (BBB),[2],does not cross the blood-brain barrier
